Results: patent US20070082937A1, “Anti cancer combinations comprising a cox-2 inhibitor” (Cancer Research Technology Limited, priority 2003, published 2007)

Tests used:
[1] = system: tumour blood flow; conditions: human tumours, well-tolerated doses, dynamic MRI; cited from earlier work
[2] = system: colon 38 tumours; experiment: Tumour growth delay assay; assay type: in vivo, mice
Experimental: C57B1/6 mice from the Animal Resource Unit, University of Auckland, were bred and housed under conditions of constant temperature and humidity, with sterile bedding and food, according to institutional ethical guidelines. All mice were aged between 8 and 12 weeks.
DMXAA was synthesized as the sodium salt (Rewcastle et al., (1990) Journal of National Cancer Institute 82:528-529). DMXAA sodium salt was dissolved in neutral aqueous solution and 25 mg/kg, in a volume of 0.1 ml per 10 g body weight, was injected intraperitoneally (i.p.) into mice.
Vioxx™ (Sigma) was made up in neutral aqueous solution and 100 or 150 mg/kg, in a volume of 0.1 ml per 10 g body weight, was injected intraperitoneally (i.p.) into mice. […]
Colon 38 tumour fragments (˜1 mm^3) were implanted subcutaneously (s.c.) in anaesthetized (sodium pentobarbitone, 90 mg/kg) mice. […] Tumour-bearing mice were treated with drugs according to the administration schedule described before, and the tumours measured using calipers, at three day intervals thereafter. Tumour volumes were calculated as 0.52a^2b, where a and b are the minor and major axes of the tumour, respectively. The arithmetic means were calculated for each time point, counting cured tumours as zero volume. The growth delay was determined as the difference in the number of days required for the control versus treated tumours to increase four times in volume. […]

Row | SMILES | tumour blood flow [1] | mice cured ([2]; DMXAA alone 25 mg/kg i.p., colon 38 tumours s.c. in mice, 6 mice) | effect on the growth of colon 38 tumours ([2]; Vioxx alone 150 mg/kg i.p., colon 38 tumours s.c. in C57Bl/6 mice)
1 | Cc1ccc2c(=O)c3cccc(CC(=O)O)c3oc2c1C [DMXAA, 5,6-dimethylxanthenone-4-acetic acid] | significant reduction | None and no cure | 
2 | CS(=O)(=O)c1ccc(C2=C(c3ccccc3)C(=O)OC2)cc1 [Vioxx™, rofecoxib, reference compound] |  |  | no significant effect
